According to patent publication US20110053897A1 (IRM LLC, priority 2009, published 2011):
Where two headings read alike, the source gives them in different places.

Target: T1, Syk kinase (Homo sapiens, UniProt P43405)
T1 construct: purchased
Experiment: Syk kinase inhibition, Caliper LabChip off-chip mobility-shift kinase assay
Type: biochemical
Conditions: read-out: Syk Enzyme IC50
Outline: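 Purified Syk pre-incubated 15 min with compound in 100 mM HEPES pH 7.5, 1 mM DTT, 10 mM MgCl2 or MnCl2, 0.002% Brij-35, then 1.5 μM fluorescein peptide and ATP at apparent KM added; 1–1.5 h at room temperature, 4% DMSO, EDTA stop. Microfluidic mobility-shift product/substrate conversion gave % inhibition; IC50 from 12-point series (10–0.00003 μM) by 4-parameter fit.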

Cn1ccc2cc(Nc3cnccn3)nc(Nc3cccc(S(C)(=O)=O)c3)c2c1=O [compound 390]
IC50: 751 nM

CCn1ccc2cc(Nc3nccc(O)n3)nc(N[C@H]3CCC[C@@H]3O)c2c1=O [compound 956]
IC50 (Caliper LabChip assay): 66 nM

CC(=O)c1ccnc(Nc2cc3ccn(CCO)c(=O)c3c(NC(C)(C)C)n2)c1 [compound 684]
IC50 (Caliper LabChip assay): 51 nM

O=c1c2c(N[C@H]3CC[C@@H](O)CC3)nc(Nc3cnccn3)cc2ccn1C1COC1 [compound 1009]
IC50 (Caliper LabChip assay): 19 nM

CC(=O)N1CCN(CCc2ccc(Nc3nc(Nc4ccc(C)cn4)cc4cc[nH]c(=O)c34)cc2)CC1 [compound 541]
IC50: 1120 nM

CC(C)(Nc1nc(Nc2cnccn2)cc2ccn(CCO)c(=O)c12)C1CC1 [compound 670]
IC50 (Caliper LabChip assay): 89 nM

CCn1ccc2cc(Nc3ncccn3)nc(NC[C@@H]3CC[C@@H](O)C3)c2c1=O [compound 413]
IC50: 46.2 nM

CC(C)(C)Nc1nc(Nc2cc(C3=CCCCC3)ncn2)cc2ccn(CCO)c(=O)c12 [compound 623]
IC50 (Caliper LabChip assay): 612 nM

Cn1ccc2cc(Nc3cnccn3)nc(N[C@H]3CC[C@@H](O)CC3)c2c1=O [compound 330]
IC50: 24 nM

CCn1ccc2cc(Nc3cnccn3)nc(N)c2c1=O [compound 802]
IC50 (Caliper LabChip assay): 1180 nM

CCC(O)(CC)c1ccnc(Nc2cc3ccn(CCO)c(=O)c3c(NC(C)(C)C)n2)c1 [compound 708]
IC50 (Caliper LabChip assay): 595 nM

Nc1ncc(-c2cc3ccn(CCO)c(=O)c3c(N[C@H]3CC[C@@H](CO)C3)n2)cn1 [compound 912]
IC50 (Caliper LabChip assay): 2 nM

Cn1ccc2cc(Nc3cnccn3)nc(Nc3ccc(C(N)=O)cc3)c2c1=O [compound 468]
IC50: 101 nM

C=Cc1cc(Nc2cc3ccn(CCO)c(=O)c3c(NC(C)(C)C)n2)ncn1 [compound 618, 8-(tert-butylamino)-2-(2-hydroxyethyl)-6-(6-vinylpyrimidin-4-ylamino)-2,7-naphthyridin-1(2H)-one]
IC50 (Caliper LabChip assay): 121 nM

[2H]C([2H])([2H])n1ccc2cc(Nc3cnccn3)nc(NC3CC3)c2c1=O [compound 467]
IC50: 49 nM

Cc1ccnc(Nc2cc3cc[nH]c(=O)c3c(Nc3ccc(C4CCN(C5CC5)CC4)c(C)c3)n2)c1 [compound 252]
IC50: 32 nM

CC(C)(C)Nc1nc(Nc2cnccn2)cc2ccn(CC(O)C(F)(F)F)c(=O)c12 (centres unmarked) [compound 1011]
IC50 (Caliper LabChip assay): 459 nM

CCNC(=O)c1ccc(Nc2nc(Nc3cc(Cl)ccn3)cc3ccn(C)c(=O)c23)cc1 [compound 382]
IC50: 362 nM

CCNC(=O)Cn1ccc2cc(Nc3cnccn3)nc(NC(C)C)c2c1=O [compound 321]
IC50: 177 nM

O=c1[nH]ccc2cc(Nc3cc(Cl)ccn3)nc(NC3CC3)c12 [compound 481]
IC50: 122 nM

COCCCc1cc2cc[nH]c(=O)c2c(Nc2ccc(N3CCO[C@H](C)C3)c(C)c2)n1 [compound 239]
IC50: 2220 nM

CC1(Nc2nc(Nc3cnccn3)cc3ccn(CCO)c(=O)c23)CCC1 [compound 896]
IC50 (Caliper LabChip assay): 11 nM

CCOC(=O)/C=C/c1cc2cc[nH]c(=O)c2c(Nc2ccc(N3CCOCC3)cc2)n1 [compound 242]
IC50: 332 nM

CC(C)Nc1nc(-c2cnc(N)nc2)cc2cc[nH]c(=O)c12 [compound 35]
IC50: 86 nM

O=c1c2c(N[C@H]3CC[C@@H](O)CC3)nc(Nc3cnccn3)cc2ccn1CCO [compound 376]
IC50: 6 nM

CCc1ccnc(Nc2cc3cc[nH]c(=O)c3c(NC3CC3)n2)c1 [compound 521]
IC50: 131 nM

CCn1ccc2cc(Nc3cnccn3)nc(NCCC(F)(F)F)c2c1=O [compound 781]
IC50 (Caliper LabChip assay): 299 nM

COc1cncc(-c2cc3cc[nH]c(=O)c3c(Nc3ccc(CCN4CCC(OC)CC4)cc3)n2)n1 [compound 23]
IC50: 39 nM

CC(C)(C)Nc1nc(Nc2cc(CN)ccn2)cc2ccn(CCO)c(=O)c12 [compound 707]
IC50 (Caliper LabChip assay): 59 nM

CC(C)(C)Nc1nc(Nc2cc(C(O)C(F)(F)F)ccn2)cc2ccn(CCO)c(=O)c12 (centres unmarked) [Compound No. 602, 8-(tert-butylamino)-2-(2-hydroxyethyl)-6-(4-(2,2,2-trifluoro-1-hydroxyethyl)pyridin-2-ylamino)-2,7-naphthyridin-1(2H)-one]
IC50 (Caliper LabChip assay): 65 nM

CC(C)(C)Nc1nc(Nc2cc(C3(O)CCC3)ccn2)cc2ccn(CCO)c(=O)c12 [compound 870]
IC50 (Caliper LabChip assay): 76 nM

Cc1ccnc(Nc2cc3ccn(C)c(=O)c3c(Nc3ccc(C4CCN(CCS(C)(=O)=O)CC4)cc3)n2)c1 [compound 311]
IC50: 496 nM

CCN1CCN(c2n[nH]c3cc(Nc4nc(-c5cncnc5)cc5cc[nH]c(=O)c45)ccc23)CC1 [compound 199]
IC50: 20 nM

Cc1cc(Nc2nc(Nc3ccc(C(N)=O)cn3)cc3cc[nH]c(=O)c23)ccc1C1CCN(C2CC2)CC1 [compound 251]
IC50: 58 nM

O=c1[nH]ccc2cc(Nc3cc(C(F)(F)F)ccn3)nc(NC3CC3)c12 [compound 517]
IC50: 386 nM

COc1cc(Nc2cc3ccn(CCO)c(=O)c3c(NC(C)(C)C)n2)ncn1 [compound 735]
IC50 (Caliper LabChip assay): 50 nM

Cc1ccnc(Nc2cc3cc[nH]c(=O)c3c(N[C@H]3CC[C@@H](O)CC3)n2)c1 [compound 303]
IC50: 17 nM

Cc1cn(CCO)c(=O)c2c(NC(C)(C)C)nc(-c3cnc(N)nc3)cc12 [compound 671]
IC50 (Caliper LabChip assay): 13 nM

CCn1ccc2cc(Nc3cnccn3)nc(N[C@@H](C)CO)c2c1=O [compound 353]
IC50: 35 nM

CC(C)(C)Nc1nc(Nc2cc(/C=C/CCO)ncn2)cc2ccn(CCO)c(=O)c12 [compound 627]
IC50 (Caliper LabChip assay): 60 nM

CC(O)c1ccnc(Nc2cc3ccn(CC(N)=O)c(=O)c3c(NC(C)(C)C)n2)c1 (centres unmarked) [compound 725]
IC50 (Caliper LabChip assay): 31 nM

Cc1ccnc(Nc2cc3ccn(CCN4CCOCC4)c(=O)c3c(NC(C)(C)C)n2)c1 [compound 997]
IC50 (Caliper LabChip assay): 296 nM

CC(C)Nc1nc(Nc2cc(CO)ccn2)cc2cc[nH]c(=O)c12 [compound 510]
IC50: 34 nM

NC(=O)c1ccnc(Nc2cc3cc[nH]c(=O)c3c(NC3CC3)n2)c1 [compound 559]
IC50: 292 nM

O=c1[nH]cc(F)c2cc(-c3cncnc3)nc(Nc3ccc(N4CCOCC4)cc3)c12 [compound 429]
IC50: 55 nM

O=c1[nH]ccc2cc(Nc3ccccn3)nc(N3CCOCC3)c12 [compound 286]
IC50: 951 nM

CC(C)Nc1nc(Nc2ccc(C(N)=O)cn2)cc2cc[nH]c(=O)c12 [compound 540]
IC50: 206 nM

CCn1ccc2cc(Nc3cc(C)ccn3)nc(N[C@@H]3CC[C@H](CO)C3)c2c1=O (stereo in doubt) [compound 789]
IC50 (Caliper LabChip assay): 72 nM

CC(C)(C)Nc1nc(Nc2cnccn2)cc2ccn(C3COC3)c(=O)c12 [compound 1014]
IC50 (Caliper LabChip assay): 120 nM

CC(C)(Cc1ccc(F)cc1)Nc1nc(-c2cnc(N)nc2)cc2ccn(CCO)c(=O)c12 [compound 925]
IC50 (Caliper LabChip assay): 145 nM

CCn1ccc2cc(Nc3cnccn3)nc(N[C@H]3CCC[C@H]3O)c2c1=O (racemic) [compound 354]
IC50: 18 nM

CC(C)(C)Nc1nc(Nc2cc(C(C)(C)CO)ccn2)cc2ccn(CCO)c(=O)c12 [compound 863]
IC50 (Caliper LabChip assay): 301 nM

CCN1CCN(CCc2ccc(Nc3nc(Nc4cc(C(F)(F)F)ccn4)cc4cc[nH]c(=O)c34)cc2)CC1 [compound 520]
IC50: 183 nM

N#CCn1ccc2cc(-c3cnc(N)nc3)nc(NC3CCCC3)c2c1=O [compound 756]
IC50 (Caliper LabChip assay): 117 nM

Cc1ccnc(Nc2cc3ccn(C)c(=O)c3c(Nc3ccc(C4CCOCC4)nc3)n2)c1 [compound 372]
IC50: 393 nM

Cc1ccc(Nc2cc3cc[nH]c(=O)c3c(Nc3ccc(C4CCN(CC(N)=O)CC4)c(C)c3)n2)nc1 [compound 558]
IC50: 489 nM

O=c1[nH]ccc2cc(CCCO)nc(Nc3ccc(N4CCOCC4)cc3)c12 [compound 247]
IC50: 45 nM

CCn1ccc2cc(Nc3cnccn3)nc(NCC(O)C(F)(F)F)c2c1=O (centres unmarked) [compound 779, 2-ethyl-6-(pyrazin-2-ylamino)-8-((3,3,3-trifluoro-2-hydroxypropyl)amino)-2,7-naphthyridin-1(2H)-one]
IC50 (Caliper LabChip assay): 145 nM

CC(C)(C)Nc1nc(Nc2cc(C(C)(C)O)ncn2)cc2ccn(C(CO)CO)c(=O)c12 [compound 741]
IC50 (Caliper LabChip assay): 22.2 nM

CC(C)(C)Nc1nc(Nc2cc(OCCO)ccn2)cc2ccn(CCO)c(=O)c12 [compound 866]
IC50 (Caliper LabChip assay): 11 nM

Cc1ccnc(Nc2cc3ccn(C)c(=O)c3c(Nc3ccc(C4CCN(C)CC4)cc3)n2)c1 [compound 309]
IC50: 16 nM

Cc1c2ccc(Nc3nc(Nc4cnccn4)cc4ccn(CCO)c(=O)c34)cc2nn1C [compound 656]
IC50 (Caliper LabChip assay): 168 nM

CCn1ccc2cc(Nc3cc(C)ccn3)nc(N[C@@H]3CC[C@H](O)C3)c2c1=O [compound 426]
IC50: 70.8 nM

CCN1CCN(CCc2ccc(Nc3nc(Nc4cc(C)ccn4)cc4cc[nH]c(=O)c34)cc2)CC1 [compound 585]
IC50: 81 nM

CC(C)(C)Nc1nc(-c2cnc(N)nc2)cc2ccn(C[C@H](O)CO)c(=O)c12 [compound 934]
IC50 (Caliper LabChip assay): 9 nM

CN1CCC(Oc2cc(Nc3cc4ccn(C[C@H](O)CO)c(=O)c4c(NC(C)(C)C)n3)ncn2)CC1 [compound 649]
IC50 (Caliper LabChip assay): 6 nM

COc1cncc(-c2cc3cc[nH]c(=O)c3c(Nc3ccc(C4CCN(C(=O)N5CCCC5)CC4)c(C)c3)n2)n1 [compound 113]
IC50: 2320 nM

CC(C(N)=O)n1ccc2cc(Nc3cnccn3)nc(NC(C)(C)C)c2c1=O (centres unmarked) [compound 660]
IC50 (Caliper LabChip assay): 13 nM

CC(CO)Nc1nc(-c2cnc(N)nc2)cc2cc[nH]c(=O)c12 (centres unmarked) [compound 183]
IC50: 203 nM

CC(C)(C)Nc1nc(Nc2cc(C3CCCCO3)ncn2)cc2ccn(CCO)c(=O)c12 (centres unmarked) [compound 626]
IC50 (Caliper LabChip assay): 756 nM

Cc1ccnc(Nc2cc3ccn(CCO)c(=O)c3c(NCC(C)(C)C)n2)c1 [compound 814]
IC50 (Caliper LabChip assay): 390 nM

CC(C)(C)Nc1nc(Nc2cc(-c3ccccn3)ccn2)cc2ccn(CCO)c(=O)c12 [compound 841]
IC50 (Caliper LabChip assay): 291 nM

Cn1ccc2cc(Nc3cnccn3)nc(Nc3cccc(C(N)=O)c3)c2c1=O [compound 477]
IC50: 580 nM

Cc1[nH]ncc1-c1ccnc(Nc2cc3ccn(CCO)c(=O)c3c(NC(C)(C)C)n2)c1 [compound 855]
IC50 (Caliper LabChip assay): 244 nM
